Measurements as given in patent US20100298377A1, “NOVEL SUBSTITUTED INDAZOLES, THE PREPARATION THEREOF AND USE OF SAME IN THERAPEUTICS” (SANOFI-AVENTIS, priority 2007, published 2010).

Assays:
[1] = tested on: LNCaP clone FGC cells (human prostate carcinoma cells); assay: Proliferation of LNCaP cells, intracellular ATP, CellTiter-Glo test; assay type: cell-based; conditions: Homo sapiens, LNCaP-Clone-FGC, 96 hours
From the text: (§1) b. Study of the Proliferation of Human Tumoral MIA PaCa-2, C-433, LnCaP and MCF7 Cells via Assay of the Intracellular ATP Using the Celltiter-Glo™ Test
(§2) The kit CellTiter-Glo™ for measuring cell viability via luminescence ([…]) is a homogeneous method for determining the number of viable cells in culture, based on quantification of the ATP present in the cells, and which indicates the presence of metabolically active cells.
(§3) The cell lines used in this test were the following: MIA PaCa-2 cells (human pancreatic carcinoma cells, ATCC, CRL-1420), C-433 cells (human Ewing sarcoma cells, DSMZ, ACC 268), LNCaP clone FGC cells (human prostate carcinoma cells, ATCC, CRL-1740), MCF7 cells (human breast carcinoma cells, ECACC, #86012803). The cells MIAPaCa-2 and LNCaP were cultured in D-MEM culture medium (Invitrogen Gibco, #419656-039) containing 10% foetal calf serum (FCS, Invitrogen Gibco, #10500-064) and 2 mM L-Glutamine (Invitrogen Gibco, #25030-024); the C-433 cells were cultured in MCCoy's 5A culture medium (Invitrogen Gibco, #26600-023)/RPMI 1640 (Invitrogen Gibco, #31870-025) (50/50) containing 10% FCS and 2 mM L-glutamine; the MCF7 cells were cultured in EMEM culture medium (EMEM, Biowhittaker, Lonza, #BE12-662F) containing 10% FCS and 2 mM L-Glutamine.
(§4) Evaluation of the Cell Viability via Luminescence Measurement: Celltiter-Glo™ Test
(§5) On day 1, the cells were inoculated at 1000 (C-433), 2500 (MCF7) and 10000 (LNCaP and MIA PaCa-2) cells per well in black-bottomed 96-well microplates (NUNC fluoronunc, Fisherbioblock 2311K) in 135 μl of whole culture medium and incubated at 37° C., 5% CO2, for 3 to 6 hours. The cells were then incubated with increasing concentrations of molecules diluted in dimethyl sulfoxide (DMSO, Sigma D2650). The molecules were added in a volume of 15 μl of a 10-fold concentrated solution in a final volume of 150 μl, the final percentage of DMSO being 0.1%. The cells were incubated at 37° C., 5% CO2, for 96 hours. After 4 days of treatment with the molecules, the CellTiter-Glo™ was performed by following the manufacturer's instructions (Kit Celltiter-Glo Luminescent, PROMEGA #G7571). Briefly, the cell plates were equilibrated for about 30 minutes at RT and 100 μl per well of Celltiter-Glo reagent were added. The cells were incubated for 1 hour at RT for lysis of the cells and stabilization of the signal. The intracellular ATP was quantified by measuring the luminescence in rlu units (relative luminescence units), 96 hours after initiation of the treatment, using a luminescence counter (Wallac). The tests were performed in six replicates.
(§6) i) the mean±s.e.m. of each series of well replicates was calculated;
(§7) ii) the maximum response is given by positive control wells containing untreated cells; this control was performed in 12 replicates;
(§8) iii) the minimum response is given by cell-free and untreated negative control wells; this control was performed in 6 replicates;
(§9) iv) using these maximum (100%) and minimum (0%) response values, respectively, the data were normalized to give a percentage relative to the maximum response;
(§10) The IC50 values were calculated by […] with the XLfit software (IDBS, UK) using formula 205.

[2] = tested on: MCF7 cells (human breast carcinoma cells); assay: Proliferation of MCF7 cells, intracellular ATP, CellTiter-Glo test; assay type: cell-based; conditions: Homo sapiens, MCF7, 96 hours
From the text: as §1, §2, §3, §4, §5, §6, §7, §8, §9, §10

AKT1 = AKT1 (Homo sapiens, UniProt P31749, S473D); assay: Determination of the IC50 for AKT1 (HTRF); assay type: biochemical; conditions: AKT1 without PH domain, activated by PDK1
Sequence of AKT1 (P31749 118-480 S473D limits assumed): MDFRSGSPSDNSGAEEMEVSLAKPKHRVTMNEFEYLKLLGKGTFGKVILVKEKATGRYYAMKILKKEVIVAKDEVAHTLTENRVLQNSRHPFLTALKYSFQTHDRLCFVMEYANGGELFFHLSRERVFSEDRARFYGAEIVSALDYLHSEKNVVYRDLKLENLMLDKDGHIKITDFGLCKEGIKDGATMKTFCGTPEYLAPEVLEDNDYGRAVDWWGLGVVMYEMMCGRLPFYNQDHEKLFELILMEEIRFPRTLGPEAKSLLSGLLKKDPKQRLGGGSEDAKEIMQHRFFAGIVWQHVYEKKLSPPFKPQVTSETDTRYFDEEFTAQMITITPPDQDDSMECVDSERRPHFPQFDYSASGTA
Method in brief: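 HTRF assay of AKT1 (S473D) kinase activity on a biotinylated peptide substrate, with 100 μM ATP and 10 μM peptide in the initiating solution.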

[3] = target: T1, Human S6K1 (24-421) T412E protein (Homo sapiens, UniProt P23443, T412E); assay: Determination of the IC50 for S6K1 (HTRF substrate phosphorylation test); assay type: biochemical; conditions: S6K1 activated by PDK1, ATP 30 μM
T1 construct: Human S6K1 (24-421) T412E protein; made in house; host or cells: Sf21 insect cells
T1 sequence (P23443 24-421 T412E): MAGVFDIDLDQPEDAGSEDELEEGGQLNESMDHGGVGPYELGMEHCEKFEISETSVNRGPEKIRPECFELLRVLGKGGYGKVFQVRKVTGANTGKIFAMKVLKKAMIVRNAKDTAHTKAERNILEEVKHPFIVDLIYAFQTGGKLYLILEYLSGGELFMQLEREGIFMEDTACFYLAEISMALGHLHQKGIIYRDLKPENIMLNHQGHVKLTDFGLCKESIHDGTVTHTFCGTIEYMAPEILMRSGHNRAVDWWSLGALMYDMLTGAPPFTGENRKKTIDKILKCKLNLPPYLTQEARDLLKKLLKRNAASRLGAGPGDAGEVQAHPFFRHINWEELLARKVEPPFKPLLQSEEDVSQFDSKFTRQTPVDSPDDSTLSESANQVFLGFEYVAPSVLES
Procedure: Determination of the IC50 for S6K1
The inhibitory potential of the compounds for S6K1 is evaluated in an enzymatic test of phosphorylation of substrate in HTRF (Homogenous Time-Resolved Fluorescence) format. Human S6K1 (24-421) T412E protein is expressed in sf21 cells and purified by chromatography on a nickel chelate column. It is activated by PDK1.
The test comprises two steps, both performed at RT. The phosphorylation reaction takes place during the first step and the revelation step is performed during the second. […] The final concentrations of compounds thus obtained during the incubation period range from 10 μM to 0.17 nM and the concentration of enzyme is 2 nM. After incubation for 20 minutes, the reaction is stopped and the revelation initiated by addition of 30 μl of a mixture of streptavidin XL 665 Xlent, ref. 611SAXLB Cis bio international, and a europium cryptate-coupled anti-phospho-GSK3 antibody, ref. 64CUSKAZ Cis bio international, dissolved in the revelation buffer (HEPES/NaOH 166.7 mM, EDTA 221.7 mM, KF 667.7 mM, BSA 0.167%, pH 7.0). The reaction takes place in a black half-well plate ref. 3694 Costar.
A mixture of the reaction medium after each addition of reagent is obtained by agitation for a few minutes at 700-1000 rpm on a Heidolph Titramax 100 machine. The reading is taken on a TECAN Ultra Evolution machine after at least one night and up to 3 nights at 4° C. The reading settings are as follows: excitation wavelength 320 nm, emission wavelengths 620 and 665 nm, lag time 150 μs, integration time 500 μs.
For each point, the ΔF % is calculated as follows:
R(Ratio)=counts665 nm/counts620 nm
The IC50 values are calculated by means of the XLfit4 205 equation.

IC50 [1]	IC50 [2]	IC50 (AKT1)	IC50 [3]	SMILES
1050 nM	5800 nM	< 100 nM	500 to 2000 nM	Cc1n[nH]c2ccc(NC(=O)NC(c3ccccc3)C3CCCCN3C)cc12 [Ex 18, 3-Methyl-5-({[(1-methylpiperid-2-yl)(phenyl)methyl]carbamoyl}amino)-1H-indazole ((S,2S),(R,2R))]
1710 nM	2400 nM	< 100 nM	100 to 500 nM	O=C(Nc1ccc2[nH]ncc2c1)O[C@@H](c1ccc(Cl)c(Cl)c1)[C@@H]1CCCCN1 [Ex 38b, (S)-(3,4-Dichlorophenyl)[(2S)-piperid-2-yl]methyl 1H-indazol-5-ylcarbamate]
2370 nM	–	< 100 nM	100 to 500 nM	O=C(Nc1ccc2[nH]ncc2c1)O[C@H](c1ccc(Cl)c(Cl)c1)[C@H]1CCCCN1 [Ex 37, (R)-(3,4-Dichlorophenyl)[(2R)-piperid-2-yl]methyl 1H-indazol-5-ylcarbamate]
1200 nM	2700 nM	< 100 nM	100 to 500 nM	O=C(Nc1ccc2[nH]ncc2c1)N[C@@H](c1ccc(Cl)c(Cl)c1)[C@@H]1CCCCN1 [Ex 4, 1-{(S)-(3,4-Dichlorophenyl)[(2S)-piperid-2-yl]methyl}-3-(1H-indazol-5-yl)urea]
–	–	< 100 nM	500 to 2000 nM	CN1CCCCC1C(NC(=O)Nc1ccc2[nH]ncc2c1)c1cc(F)cc(Cl)c1 (stereo not shown) [Ex 11, 1-[(3-Chloro-5-fluorophenyl)(1-methylpiperid-2-yl)methyl]-3-(1H-indazol-5-yl)urea]
–	1420 nM	< 100 nM	100 to 500 nM	O=C(Nc1ccc2[nH]ncc2c1)NC(c1cc(F)cc(Cl)c1)C1CCCCN1 (stereo not shown) [Ex 5, 1-[(3-Chloro-5-fluorophenyl)(piperid-2-yl)methyl]-3-(1H-indazol-5-yl)urea]
2940 nM	4450 nM	< 100 nM	100 to 500 nM	S=C(Nc1ccc2[nH]ncc2c1)N[C@@H](c1ccc(Cl)c(Cl)c1)[C@@H]1CCCCN1 [Ex 31, 1-{(S)-(3,4-Dichlorophenyl)[(2S)-piperid-2-yl]methyl}-3-(1H-indazol-5-yl)thiourea]
280 nM	1100 nM	< 100 nM	100 to 500 nM	O=C(Nc1ccc2[nH]ncc2c1)N[C@@H](c1cc(F)cc(Cl)c1)[C@@H]1CCCCN1 [Ex 3, 1-{(S)-(3-Chloro-5-fluorophenyl)[(2S)-piperid-2-yl]methyl}-3-(1H-indazol-5-yl)urea]
611 nM	1290 nM	< 100 nM	100 to 500 nM	CN1CCCCC1C(NC(=O)Nc1ccc2[nH]nc(C#Cc3cccnc3)c2c1)c1ccccc1 [Ex 25, 1-[(1-Methylpiperid-2-yl)(phenyl)methyl]-3-[3-(pyrid-3-ylethynyl)-1H-indazol-5-yl]urea((S,2S),(R,2R))]
2230 nM	–	< 100 nM	500 to 2000 nM	CN1CCCCC1C(OC(=O)Nc1ccc2[nH]ncc2c1)c1cc(F)cc(Cl)c1 (stereo not shown) [Ex 36, (3-Chloro-5-fluorophenyl)(1-methylpiperid-2-yl)methyl 1H-indazol-5-ylcarbamate]
–	–	100 to 500 nM	500 to 2000 nM	CN1CCCCC1C(NC(=O)Nc1ccc2[nH]nc(-c3ccncc3)c2c1)c1ccccc1 [Ex 13, 1-[(1-Methylpiperid-2-yl)(phenyl)methyl]-3-(3-pyrid-4-yl-1H-indazol-5-yl)urea((S,2S),(R,2R))]
861 nM	–	100 to 500 nM	500 to 2000 nM	CN1CCCCC1C(NC(=O)Nc1cc(F)c2[nH]ncc2c1)c1ccccc1 [Ex 21, 1-(7-Fluoro-1H-indazol-5-yl)-3-[(1-methylpiperid-2-yl)(phenyl)methyl]urea((S,2S),(R,2R))]
600 nM	1300 nM	< 100 nM	100 to 500 nM	O=C(Nc1ccc2[nH]ncc2c1)O[C@@H](c1cccc(Br)c1)[C@@H]1CCCCN1 [Ex 46]
–	–	< 100 nM	100 to 500 nM	CN1CCCCC1C(NC(=O)Nc1ccc2[nH]nc(C#Cc3ccc(F)cc3)c2c1)c1ccccc1 [Ex 24, 1-{3-[(4-Fluorophenyl)ethynyl]-1H-indazol-5-yl}-3-[(1-methylpiperid-2-yl)(phenyl)methyl]urea((S,2S),(R,2R))]
–	–	< 100 nM	500 to 2000 nM	O=C(Nc1ccc2[nH]ncc2c1)OC(c1cc(Cl)cc(Cl)c1)C1CCCCN1 [Ex 34, (3,5-Dichlorophenyl)[piperid-2-yl]methyl 1H-indazol-5-ylcarbamate((S,2S),(R,2R))]
319 nM	1050 nM	< 100 nM	100 to 500 nM	O=C(Nc1ccc2[nH]ncc2c1)O[C@@H](c1cc(F)cc(Cl)c1)[C@@H]1CCCCN1 [Ex 35, (S)-(3-Chloro-5-fluorophenyl)[(2S)-piperid-2-yl]methyl 1H-indazol-5-ylcarbamate]
